# Source: US20230282357A1, “ACUTE LIVER PATIENT MANAGEMENT” (MERIDIAN BIOSCIENCE ISRAEL LTD., priority 2020, published 2023)
# Read-outs that look alike come from different tables or passages of the source.
# Experiments:
# [1] = target: T1, CYP1A2 metabolism (Homo sapiens, UniProt P05177); conditions: in vivo
# T1 sequence (P05177 1-516): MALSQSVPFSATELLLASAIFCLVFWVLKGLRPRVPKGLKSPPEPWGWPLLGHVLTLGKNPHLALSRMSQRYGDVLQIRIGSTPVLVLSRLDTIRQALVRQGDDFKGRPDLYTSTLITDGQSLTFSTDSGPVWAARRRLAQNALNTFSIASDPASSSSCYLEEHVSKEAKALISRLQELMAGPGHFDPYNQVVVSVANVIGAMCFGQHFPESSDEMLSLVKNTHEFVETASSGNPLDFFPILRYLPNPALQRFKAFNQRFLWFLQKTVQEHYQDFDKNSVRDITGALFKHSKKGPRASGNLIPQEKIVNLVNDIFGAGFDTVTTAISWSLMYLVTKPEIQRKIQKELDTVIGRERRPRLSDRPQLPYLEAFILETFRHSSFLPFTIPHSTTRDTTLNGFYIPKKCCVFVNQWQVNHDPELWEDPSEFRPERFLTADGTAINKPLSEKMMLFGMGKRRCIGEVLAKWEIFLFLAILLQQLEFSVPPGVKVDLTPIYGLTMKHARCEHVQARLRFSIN
# Method: (§1) A ^13C-methacetin breath test (MBT), which assays CYP1A2 metabolism, for assessing functional liver capacity and its changes over time, was utilized to predict transplant-free survival.
# (§2) Method: Eligible patients with ALF or non-acetaminophen (APAP) ALI underwent ^13C-MBT at day 1, 2, 3, 5 and 7 after enrollment, unless discharged, transplanted or died. 75 mg of ^13C-methacetin was administered orally or via a nasogastric tube, and exhaled ^13CO2 measured for up to 60 minutes using the BreathID® (Exalenz Bioscience Ltd., Modi’in, Israel). The percent dose recovery (PDR) peak was determined on day 1 or 2 and correlated with 21-day outcome.
# [2] = human, in vivo
# [3] = target: T1, CYP1A2 metabolism; experiment: 13C-methacetin breath test (MBT), PDR-peak in ALF/ALI patients
# Method: as §1, §2
smiles,measurement,setting,value
CC(=O)Nc1ccc(O[13CH3])cc1 [^13C-methacetin],"mean serial PDR-peaks, TFS vs non-TFS",[1],consistently higher
same,serial PDR peak results,[1],very low PDR-peak during the entire period
same,de-novo or worsening serum cysteine-APAP protein adduct levels on serial testing,[2],None of the first 20 patients
same,serious adverse events attributable to test device or substrate,[2],no serious adverse events
same,AUROC of PDR-peak as predictor of 21-day transplant free survival,"[3]; 42 ALF patients, Day 1 or 2 PDR-peak values",0.82 (95% CI 0.68-0.96)
same,AUROC of PDR-peak as predictor of 21-day transplant free survival,"[3]; 42 ALF patients, combined with the ALFSG prognostic index",0.93
same,AUROC of PDR-peak as predictor of 21-day transplant free survival,"[3]; 42 ALF patients, with inclusion of ALF etiology",0.89 (95% CI 0.79-0.98)
same,AUROC of PDR-peak as predictor of 21-day transplant free survival,"[3]; 56 ALF and ALI patients, day 1 or 2 measures",0.88 (95% CI 0.79-0.97)
same,AUROC of PDR-peak as predictor of 21-day transplant free survival,"[3]; 56 ALF and ALI patients, with inclusion of the etiology of ALI/ALF",0.92 (95% CI 0.85-0.99)
same,serial PDR peak results,"[3]; ALF DILI patient who survived without transplant, FIG. 6",improved from day 2 through day 7
same,day 1 or 2 mean PDR-peak,"[3]; transplant-free survivors (TFS), 75 mg orally or via nasogastric tube, exhaled 13CO2 up to 60 minutes",9.2 %/h
